From US20160159778A1, “NOVEL UREIDO DERIVATIVES OF NAPHTHALENESULFONIC ACIDS” (NeED PHARMACEUTICALS S.r.l., priority 2013, published 2016)

Tests used:
Assay type in all cases: cell-based
[1] = tested on: HIV-1 IIIB (strain using CXCR4); test: HIV-1 IIIB replication in PHA-activated peripheral blood mononuclear cells (p24 in supernatant); conditions: for inhibition of replication of HIV-1 IIIB: PBMC
Procedure: (§1) The compound (VII) has been tested for its ability to modulate the viral replication of HIV-1, both of a strain using CXCR4 (IIIB) and a strain using CCR5 (Bal) as co-receptor, in addition to the primary receptor CD4.
(§2) For the in-vitro infections primary cells have been used, specifically peripheral blood mononuclear cells from healthy donors pre-activated for 48 hours through a mitogenic stimulus (phytohemagglutinin) to allow for the infection by HIV-1. The cells have been incubated with IIIB and Bal viruses in absence or in presence of scalar concentrations of compound (VII) for 30 minutes at 37° C., then they have been washed to remove the excess virus, plated in triplicate in culture microplates and the compound VII has been re-added to the wells, in the test concentrations. The control culture has been set up in presence of dimethylsulfoxyde (DMSO), the compound in which the compound VII has been dissolved, in order to more correctly evaluate a net effect of the compound. The viral replication has been evaluated by measuring the structural protein of HIV-1 p24 (expressed in ng/ml) by an immune-enzymatic test carried out on the culture supernatants harvested on days 4 and 7 post-infection.
(§3) The graphs show the mean values of the culture triplicate with the standard deviation on post-infection days 4 and 7.

[2] = tested on: fusion mediated by gp120 of HIV-1 using CXCR4; test: gp120-mediated cell-cell fusion assay, target cells with CD4 and CXCR4 (colorimetric, OD 570 nm)
Source text: (§4) In order to evaluate on which step of the complex HIV-1 replication cycle the compound VII acts according to the present invention, a sophisticated method, schematized in FIG. 2, has been used, specifically only focusing on the entry step of HIV-1 in target cells.
(§5) Briefly, a colorimetric reaction is developed when two populations of properly engineered cells meet and in particular a donor, carrying on the surface the glycoprotein of HIV-1 gp120 and a target, together with the primary receptor CD4 and with one of the co-receptors, CXCR4 or CCR5. In this case there is a fusion of the cells and the polymerase T7 can pass from the donor cell to the target one in which it triggers the transcription of beta-galactosidase with subsequent protein translation. Thus the latter is able to perform its enzymatic action in the presence of the convenient substrate (CPRG, chlorophenol red-3-D galactopyranoside) developing a colorimetric reaction measured by detection of optical density (OD) at 570 nm.
(§6) In the first one, the target cells are mouse fibroblasts (3T3 in FIG. 3 A/B), on the contrary in the second one the target cells are human epithelial cells (HeLa, in FIG. 3 C/D). The graphs show the mean values of the culture triplicate with the standard deviation.

[3] = tested on: fusion mediated by gp120 of HIV-1 using CCR5; test: gp120-mediated cell-cell fusion assay, target cells with CD4 and CCR5 (colorimetric, OD 570 nm); conditions: target cells 3T3 mouse fibroblasts and HeLa human epithelial cells (FIG. 3 B/D)
Source text: as §4, §5, §6

[4] = tested on: HIV-1 Bal (strain using CCR5); test: HIV-1 Bal replication in PHA-activated peripheral blood mononuclear cells (p24 in supernatant); conditions: PBMC
Procedure: as §1, §2, §3

[5] = 0.1 μM, p24 on days 4 and 7 post-infection (FIG. 1C/D)
[6] = 1 μM, p24 on days 4 and 7 post-infection (FIG. 1C/D)
[7] = 30, 10 and 3 μM, p24 on days 4 and 7 post-infection (FIG. 1A/B)

**Q.** What does the source list for Cn1cc(NC(=O)c2cc3cc(NC(=O)Nc4ccc5c(c4)cc(C(=O)Nc4cc(C(=O)Nc6ccc7cc(S(=O)(=O)O)cc(S(=O)(=O)O)c7c6)n(C)c4)n5C)ccc3n2C)cc1C(=O)Nc1ccc2cc(S(=O)(=O)O)cc(S(=O)(=O)O)c2c1 [compound (VII)]?
**A.** inhibition of replication of HIV-1 IIIB [1, 5]: not more effective; inhibition of replication of HIV-1 IIIB [1, 6]: inhibited completely; inhibition of replication of HIV-1 IIIB [1, 7]: completely inhibited; relative effectiveness in replication inhibition, CXCR4-using versus CCR5-using virus ([1]; comparison of IIIB with Bal at 1 μM): higher effectiveness of the compound against viruses using the chemokine receptor CXCR4; relative potency in fusion inhibition, HIV-1 using CXCR4 versus HIV-1 using CCR5 ([2]; comparison of CXCR4 (the latter) with CCR5): more potent against the latter; inhibition of fusion mediated by gp120 of HIV-1 using CXCR4 ([2]; target cells 3T3 mouse fibroblasts and HeLa human epithelial cells (FIG. 3 A/C)): able to inhibit, in a way depending on the concentration; inhibition of fusion mediated by gp120 of HIV-1 using CCR5 [3]: able to inhibit, in a way depending on the concentration; inhibition of replication of HIV-1 Bal [4, 5]: not more effective; inhibition of replication of HIV-1 Bal [4, 6]: almost totally lost the inhibitory ability; inhibition of replication of HIV-1 Bal [4, 7]: completely inhibited
